The values that follow come from the NIST ThermoML archive (doi:10.1021/je700270d).

Each structure is given as a SMILES string. ± gives the expanded uncertainty stated by the source.

The nature of series [1]: activity coefficient (dimensionless); of the first substance listed, at infinite dilution; xn = mol fraction of the nth substance listed. The settings on record: Liquid, x1 = 0.
The conditions of series [2]: Liquid, Closed cell (Static) method.

On to `C/C=C\C` [(Z)-2-butene] + C1CCOCC1, for which the activity coefficient was determined as 1.36 ± 0.05 in series [1] (250 K, Chromatography); 1.33 ± 0.05 in series [1] (270.07 K, Chromatography); 1.32 ± 0.05 in series [1] (289.98 K, Chromatography); 1.31 ± 0.05 in series [1] (309.98 K, Chromatography); 1.32 ± 0.05 in series [1] (330 K, Chromatography).
For the compound `C=C(C)C` [2-methylpropene] + C1CCOCC1, the activity coefficient is 1.39 ± 0.05 in series [1] (250.06 K, Chromatography); 1.39 ± 0.05 in series [1] (270.12 K, Chromatography); 1.38 ± 0.05 in series [1] (289.97 K, Chromatography); 1.38 ± 0.05 in series [1] (309.98 K, Chromatography); 1.37 ± 0.05 in series [1] (329.97 K, Chromatography).
On to `CCCl` [chloroethane] + C1CCOCC1, for which the activity coefficient in series [1] (250 K, Chromatography) came out at 0.9 ± 0.03; in series [1] (270.07 K, Chromatography), 0.89 ± 0.03; in series [1] (289.98 K, Chromatography), 0.89 ± 0.03; in series [1] (309.98 K, Chromatography) it was 0.94 ± 0.03; in series [1] (330 K, Chromatography), 0.98 ± 0.03.
Consider `C=CC=C` [1,3-butadiene] + C1CCOCC1, for which the activity coefficient turned out to be 0.95 ± 0.03 in series [1] (250.06 K, Chromatography); 0.97 ± 0.03 in series [1] (270.12 K, Chromatography); 1.01 ± 0.03 in series [1] (289.97 K, Chromatography); 1.05 ± 0.03 in series [1] (309.98 K, Chromatography); 1.09 ± 0.03 in series [1] (329.97 K, Chromatography).
Take `CCCCCC` [hexane] + C1CCOCC1: the activity coefficient in series [1] (290 K, Chromatography) was determined as 1.76 ± 0.07; in series [1] (299.89 K, Chromatography) it was 1.71 ± 0.07; in series [1] (309.98 K, Chromatography) it was 1.67 ± 0.07; in series [1] (319.99 K, Chromatography) it was 1.65 ± 0.07; in series [1] (330.02 K, Chromatography), 1.61 ± 0.06.
Regarding `CC(F)F` [1,1-difluoroethane] + C1CCOCC1, the activity coefficient in series [1] (250.06 K, Chromatography) came out at 1.57 ± 0.06; in series [1] (270.12 K, Chromatography), 1.64 ± 0.07; in series [1] (289.97 K, Chromatography), 1.67 ± 0.07; in series [1] (309.98 K, Chromatography), 1.69 ± 0.07; in series [1] (329.97 K, Chromatography), 1.66 ± 0.07.
The matching figures for `CCCC` [butane] + C1CCOCC1: 2.04 ± 0.09, 1.94 ± 0.09, 1.85 ± 0.08, 1.78 ± 0.08 and 1.72 ± 0.07.
As for `COC` [dimethyl ether] + C1CCOCC1, the activity coefficient in series [1] (250 K, Chromatography) came to 1.29 ± 0.04; in series [1] (270.07 K, Chromatography), 1.26 ± 0.04; in series [1] (289.98 K, Chromatography) it was 1.26 ± 0.04; in series [1] (309.98 K, Chromatography), 1.26 ± 0.04; in series [1] (330 K, Chromatography), 1.26 ± 0.04.
`C=CC` [propene] + C1CCOCC1: the activity coefficient is 1.42 ± 0.05 in series [1] (250.06 K, Chromatography); 1.42 ± 0.05 in series [1] (270.12 K, Chromatography); 1.43 ± 0.05 in series [1] (289.97 K, Chromatography); 1.44 ± 0.05 in series [1] (309.98 K, Chromatography); 1.44 ± 0.05 in series [1] (329.97 K, Chromatography).
In the case of `CC(C)C` [2-methylpropane] + C1CCOCC1, the activity coefficient stood at 2.14 ± 0.1 in series [1] (250.06 K, Chromatography); 2.04 ± 0.09 in series [1] (270.12 K, Chromatography); 1.94 ± 0.09 in series [1] (289.97 K, Chromatography); 1.88 ± 0.08 in series [1] (309.98 K, Chromatography); 1.82 ± 0.08 in series [1] (329.97 K, Chromatography).
For `C=CCC` [1-butene] + C1CCOCC1, the activity coefficient in series [1] (250.06 K, Gas Stripping Method) turned out to be 1.39 ± 0.01; in series [1] (270.12 K, Gas Stripping Method), 1.39 ± 0.01; in series [1] (289.97 K, Gas Stripping Method), 1.38 ± 0.01; in series [1] (309.98 K, Gas Stripping Method), 1.38 ± 0.01; in series [1] (329.97 K, Gas Stripping Method), 1.38 ± 0.01.
As for `C/C=C/C` [(E)-2-butene] + C1CCOCC1, the activity coefficient in series [1] (250.06 K, Chromatography) was determined as 1.43 ± 0.05; in series [1] (270.12 K, Chromatography), 1.41 ± 0.05; in series [1] (289.97 K, Chromatography), 1.4 ± 0.05; in series [1] (309.98 K, Chromatography), 1.4 ± 0.05; in series [1] (329.97 K, Chromatography), 1.4 ± 0.05.
As for `CCC` [propane] + C1CCOCC1, the activity coefficient is 2.08 ± 0.09 in series [1] (250.06 K, Chromatography); 1.98 ± 0.09 in series [1] (270.12 K, Chromatography); 1.9 ± 0.08 in series [1] (289.97 K, Chromatography); 1.84 ± 0.08 in series [1] (309.98 K, Chromatography); 1.79 ± 0.08 in series [1] (329.97 K, Chromatography).
One may read the vapor or sublimation pressure as the pressure of vapour in equilibrium with the condensed phase. Consider `C1CCOCC1` [tetrahydropyran], for which the “vapor or sublimation pressure” value in series [2] (257.96 K) amounted to 0.98 ± 0.01 kPa; in series [2] (260.07 K), 1.13 ± 0.01 kPa; in series [2] (270.28 K), 2.16 ± 0.02 kPa; in series [2] (279.82 K), 3.7 ± 0.02 kPa; in series [2] (289.94 K) it was 6.28 ± 0.02 kPa; in series [2] (290 K), 6.3 ± 0.02 kPa. The “vapor or sublimation pressure” value was 10.23 ± 0.04 kPa in series [2] (300.01 K); 40 ± 0.1 kPa in series [2] (332.98 K); 53.33 ± 0.12 kPa in series [2] (341.09 K); 66.66 ± 0.15 kPa in series [2] (347.72 K); 79.99 ± 0.18 kPa in series [2] (353.38 K); 93.33 ± 0.21 kPa in series [2] (358.37 K). The “vapor or sublimation pressure” value in series [2] (360.22 K) was 98.66 ± 0.22 kPa.
